# Laboratory results taken from US20120028359A1, “PRODUCTION PROCESS OF GENDER-SPECIFIC SERUM AND BIOMARKER USING THE SERUM” (priority 2009, published 2012).
# Assays:
# isolated MSCs = experiment: Lipid droplets (ORO) in MSCs in adipogenic medium with C-MS plus hormone; type: cell-based, bovine; conditions: hormone-treated vs untreated, FIGS. 17 and 18
# Protocol: The cells were cultured in adiopogenic medium treated with E2, testosterone, or E2 and testosterone. The cells were stained with ORO to check the accumulation of lipid droplets.
# FAT/CD36 [1] = experiment: Real-time RT-PCR, FAT/CD36 mRNA in adipogenic medium; type: cell-based, bovine; conditions: adipogenic medium with C-MS, hormone-treated; FIG. 19
# Protocol: (§1) Trizor™ reagent (Invitrogen) was used to extract total RNA from cells, according to the manufacturer's protocol. RNA was […] in diethylpyrocarbonate-treated water at −80° C. Concentrations of the extracted RNA samples were measured using an ND-100 spectrophotometer (NanoDrop Technologies, Wilmington, Del., USA) and the purity was checked with an Agilent 2100 bioanalyzer (Agilent Technologies, Palo Alto, Calif., USA) prior to RT-PCR. RNA was reverse-transcribed into the first stranded cDNA using Superscript-II reverse transcriptase (Invitrogen). Total RNA (1 μg in 20 μl total volume) was primed with oligo (dT) 20 primers (Bioneer, Daejeon, Korea), and reverse transcription was carried out at 42° C. for 50 min and 72° C. for 15 min. Subsequently, 2 μl of the 10× diluted cDNA product and 10 pmoles of each gene-specific primer were used to perform PCR using a 7500 real-time PCR system (Applied Biosystems, Foster City, Calif., USA). Power SYBR® Green PCR Master Mix (Applied Biosystems) was used as the fluorescence source. Primers were designed with Primer 3 software (http://frodo.wi.mit.edu) using sequence information listed at the National Center for Biotechnology Information. […]
# FAT/CD36 [2] = experiment: Immunocytochemistry, FAT/CD36 protein in adipogenic medium; type: cell-based, bovine; conditions: adipogenic medium with C-MS, hormone-treated; FIG. 20
# Protocol: Isolated MSCs were cultured in a covered glass-bottom dish and allowed to differentiate into myotubes or to transdifferentiate into ALCs under different serum conditions. Then, the culture mediun was removed and cells were rinsed with PBS. PBS rinsing was also performed between all subsequent steps. Cells were fixed with 4% formaldehyde, permeabilized by 0.2% Triton X-100 and 3-4 drops of Image-iT™ FX signal enhancer (Invitrogen) was applied. Primary antibody (mouse monoclonal IgG1 Myogenin; sc-12732, rabbit polyclonal IgG CD36 sc-9154; Santa Cruz Biotechnology, Santa Cruz Calif., USA) was added and incubated at 4° C. in a humid environment overnight, and then incubated with secondary antibody (Alexa Fluor 488 goat anti-mouse SFX kit and Alexa Fluor 488 goat anti-rabbit SFX kit; Molecular Probes, Eugene, Oreg., USA) at room temperature for 1 hour. Each cell nucleus was counterstained by […] (DAPI; Sigma-Aldrich, St. Louis Mo., USA). Immunostained cells were observed using a fluorescence microscope (Nikon).
# MSCs were transdifferentiated into ALCs by switching the culture medium into adipogenic medium. To observe the effect of different sera on transdifferentiation, cells were cultured in adipogenic media supplemented with different sera for 7 days and stained with ORO. […]
# myotube formed cells = experiment: Lipid accumulation in myotube formed cells treated with hormone; type: cell-based; conditions: DMEM (phenol-red (−))/10% FBS, hormone for about 2 weeks; FIG. 5
# Excerpt: Then, lipid accumulation levels of the cells were confirmed.
# bovine MSCs = experiment: MSC proliferation, cells enumerated with hematocytometer; type: cell-based; conditions: MSC in C-MS or CDFBS, 10 nM hormone, vs respective control
# Protocol: The cultured cells were harvested by trypsin-EDTA, and subcultured in wells of 6-well plates with DMEM supplemented with FBS after washing the collected cell precipitate. Cells were cultured for a day in the supplemented medium to allow for equal attachment in the culture dish. The next day the medium was removed and replaced with DMEM supplemented with 10% FBS, MS, FS and C-MS.
# MSCs were cultured in DMEM supplemented with C-MS to observe the steroidal effect on the cultured muscle cells. E2, testosterone, or a combination of E2 and testosterone (all 10 nM) were added directly to each medium. Cells were enumerated under microscopic examination using a hematocytometer.
# For MSC differentiation, cells were collected from a primary culture dish and subcultured. The cells in passage one were cultured in medium supplemented with FBS, MS, FS, or […] for three days, and cell numbers in each culture were enumerated.
# MSC were subcultured in C-MS or CDFBS and treated with 10 nM of E2 or testosterone, or a combination of E2 and testosterone.
# AR = experiment: Real-time RT-PCR, AR mRNA; type: cell-based, bovine; conditions: hormone treatment, 10 nM, C-MS medium; FIG. 13
# Protocol: as §1
# C2C12 myoblast cell line = experiment: C2C12 myoblast proliferation; type: cell-based; conditions: testosterone-treated C-MS and CDFBS
# Excerpt: In addition, the effect of different serum and steroids on the C2Cl2 myoblast cell line was also observed. The data generated were in agreement with those of bovine MSCs.
# Myogenin = experiment: Real-time RT-PCR, myogenin mRNA; type: cell-based, bovine; conditions: hormone treatment, 10 nM, C-MS medium; FIG. 13
# Protocol: as §1
Structure (SMILES),"lipid droplets, ORO staining (isolated MSCs)",FAT/CD36 mRNA expression (FAT/CD36 [1]),FAT/CD36 protein expression (FAT/CD36 [2]),lipid accumulation level in myotube (myotube formed cells),increment of cell proliferation (bovine MSCs),AR expression (AR),C2C12 cell proliferation (C2C12 myoblast cell line),myogenin expression (Myogenin)
"C[C@]12CC[C@@H]3c4ccc(O)cc4CC[C@H]3[C@@H]1CC[C@@H]2O [E2, 17β-estradiol]",slight increase,significant increase,upregulated,"highest in myotube of the cells treated with 17β-estradiol, and decreases in the following order of [17β-estradiol+testosterone], testosterone, and the control group that was not treated with hormone","highest in the testosterone-treated culture followed by the combination E2 and testosterone, and E2 only",,,
C[C@]12CC[C@H]3[C@@H](CCC4=CC(=O)CC[C@@]43C)[C@@H]1CC[C@@H]2O [testosterone],slight increase,,,"highest in myotube of the cells treated with 17β-estradiol, and decreases in the following order of [17β-estradiol+testosterone], testosterone, and the control group that was not treated with hormone","highest in the testosterone-treated culture followed by the combination E2 and testosterone, and E2 only",up-regulated myogenin and AR expression significantly,markedly increased,up-regulated myogenin and AR expression significantly
